Converted amounts (≈) assume the structure as drawn. Blank lines part the entries; values can stand above or below the compound they belong to.
Columns and labels:
Assay in all cases: ≥ marks a high value that may be exact or a test limit, other limits are often not marked, values filed in µg/mL are converted to µM
[1] = tested on: Staphylococcus aureus A170
[2] = tested on: Staphylococcus epidermidis
[3] = tested on: Aeromonas salmonicida NCIMB 1102
[4] = tested on: Bacillus subtilis IAM 1026
[5] = tested on: Escherichia coli JCM 1649
[6] = tested on: Photobacterium damselae subsp. piscicida Sp 9587
Salmonella typhimurium = tested on: Salmonella typhimurium
[7] = tested on: Shewanella putrefaciens IAM 1509
[8] = tested on: Staphylococcus aureus IAM 1011
[9] = tested on: Vibrio anguillarum NCIMB 829
[10] = tested on: Vibrio parahaemolyticus Vp+1
[11] = tested on: Candida albicans ATCC 36232
[12] = tested on: Escherichia coli ATCC 2592
[13] = tested on: Micrococcus luteus ATCC 9341
[14] = tested on: Proteus vulgaris ATCC 6380
[15] = tested on: Pseudomonas aeruginosa ATCC 9027
[16] = tested on: Staphylococcus aureus ATCC 6538
Staphylococcus aureus = tested on: Staphylococcus aureus
[17] = tested on: Clavibacter michiganensis subsp. michiganensis DSM 46294
[18] = tested on: Pectobacterium carotovorum subsp. carotovorum DSM 30168
[19] = tested on: Pseudomonas corrugata DSM 7228
[20] = tested on: Pseudomonas syringae pv. syringae DSM 10604
[21] = tested on: Pseudomonas syringae pv. tomato DC3000
[22] = tested on: Xanthomonas vesicatoria DSM 50861
[23] = tested on: Aspergillus niger CECT 2694
[24] = tested on: Fusarium oxysporum f. sp. lycopersici ATCC 201829
[25] = tested on: Penicillium expansum EPS 26
[26] = tested on: Rhizopus stolonifer CECT 2344
[27] = tested on: Candida albicans ATCC 96112
Candida glabrata 65C = tested on: Candida glabrata 65C
[28] = tested on: Candida glabrata ATCC 90030
[29] = tested on: Cryptococcus neoformans ATCC 52817
[30] = tested on: Cryptococcus neoformans CN2
[31] = tested on: Saccharomyces cerevisiae S288C
[32] = tested on: Streptococcus gordonii ATCC 10558
[33] = tested on: Streptococcus mutans GS-5
[34] = tested on: Streptococcus mutans UA159
[35] = tested on: Streptococcus sanguinis ATCC 49295
[36] = tested on: Bacillus subtilis IFO 3134
[37] = tested on: Escherichia coli IFO 12734
[38] = tested on: Pseudomonas aeruginosa IFO 12582
[39] = tested on: Staphylococcus aureus IFO 12732
Cupriavidus necator H16 = tested on: Cupriavidus necator H16
[40] = tested on: Escherichia coli BL21(DE3)
Escherichia coli JM109 = tested on: Escherichia coli JM109
[41] = tested on: Pseudomonas putida GPp104

Structure (SMILES): CC[C@H](C)[C@H](NC(=O)[C@H](C)NC(=O)[C@H](Cc1cnc[nH]1)NC(=O)[C@@H](NC(=O)[C@@H](NC(=O)[C@H](Cc1cnc[nH]1)NC(=O)[C@H](Cc1cnc[nH]1)NC(=O)[C@@H](NC(=O)[C@@H](N)Cc1ccccc1)[C@@H](C)CC)[C@@H](C)CC)C(C)C)C(=O)NCC(=O)N[C@@H](CCCN=C(N)N)C(=O)N[C@@H](CC(C)C)C(=O)N[C@@H](Cc1ccccc1)C(N)=O [FIHHIVHAIGRLF]
MIC [3]: 16 µM (≈ 25 µg/mL)
MIC [4]: 8.01 µM (≈ 12.5 µg/mL)
MIC [5]: ≥ 32.1 µM
MIC [6]: 8.01 µM (≈ 12.5 µg/mL)
MIC (Salmonella typhimurium): ≥ 32.1 µM
MIC [7]: 4.01 µM (≈ 6.25 µg/mL)
MIC [8]: 2.01 µM (≈ 3.13 µg/mL)
MIC [9]: ≥ 32.1 µM
MIC [10]: ≥ 32.1 µM

Structure (SMILES): CC[C@H](C)[C@H](NC(=O)[C@H](CCCCN)NC(=O)[C@@H]1CCCN1C(=O)[C@H](CC(C)C)NC(=O)[C@H](Cc1ccccc1)NC(=O)[C@H](CC(N)=O)NC(=O)[C@H](C)NC(=O)[C@H](C)NC(=O)[C@H](CC(C)C)NC(=O)CN)C(=O)N[C@@H](Cc1ccccc1)C(=O)N[C@@H](CS)C(=O)N[C@@H](CCCCN)C(=O)N[C@H](C(=O)N[C@H](C(=O)N[C@@H](CCCN=C(N)N)C(=O)N[C@@H](CCCCN)C(=O)N[C@@H](CS)C(N)=O)[C@@H](C)O)[C@@H](C)CC [GLAANFLPKIFCKITRKC]
MIC [11]: 12.4 µM (≈ 25 µg/mL)
MIC [12]: 12.4 µM (≈ 25 µg/mL)
MIC [13]: 6.18 µM (≈ 12.5 µg/mL)
MIC [14]: ≥ 49.4 µM
MIC [15]: 6.18 µM (≈ 12.5 µg/mL)
MIC [16]: 12.4 µM (≈ 25 µg/mL)
MIC (Staphylococcus aureus): 49.4 µM (≈ 100 µg/mL)

Structure (SMILES): CC[C@H](C)[C@H](NC(=O)[C@H](C)NC(=O)[C@@H]1CCCN1C(=O)[C@@H](NC(=O)[C@@H](NC(=O)[C@H](Cc1cnc[nH]1)NC(=O)[C@H](C)NC(=O)[C@H](C)NC(=O)[C@@H](NC(=O)[C@H](CCCCN)NC(=O)[C@H](C)NC(=O)[C@H](CC(C)C)NC(=O)[C@@H](NC(=O)CNC(=O)[C@H](Cc1ccccc1)NC(=O)[C@@H](N)CC(C)C)C(C)C)C(C)C)C(C)C)C(C)C)C(=O)N[C@@H](C)C(=O)N[C@@H](CCC(=O)O)C(=O)N[C@@H](Cc1cnc[nH]1)C(=O)N[C@@H](Cc1ccccc1)C(N)=O [LFGVLAKVAAHVVPAIAEHF]
MIC [36]: ≥ 64 µM
MIC [37]: ≥ 64 µM
MIC [38]: ≥ 64 µM
MIC [39]: ≥ 64 µM

Structure (SMILES): CC[C@H](C)[C@H](NC(=O)[C@H](Cc1ccc(O)cc1)NC(=O)[C@@H](NC(=O)[C@@H]1CCCN1C(=O)[C@H](CCCN=C(N)N)NC(=O)[C@H](CCCN=C(N)N)NC(=O)[C@@H](NC(=O)[C@@H](N)CCCN=C(N)N)C(C)C)C(C)C)C(=O)N1CCC[C@H]1C(=O)N[C@@H](CCC(N)=O)C(=O)N1CCC[C@H]1C(=O)N[C@@H](CCCN=C(N)N)C(=O)N1CCC[C@H]1C(=O)N1CCC[C@H]1C(=O)N[C@@H](Cc1cnc[nH]1)C(=O)N1CCC[C@H]1C(=O)N[C@@H](CCCN=C(N)N)C(=O)N[C@@H](CC(C)C)C(=O)O [RVRRPVYIPQPRPPHPRL]
MIC (Cupriavidus necator H16): 10 µM (≈ 22.3 µg/mL)
MIC [40]: 0.313 µM (≈ 0.699 µg/mL)
MIC (Escherichia coli JM109): 2.5 µM (≈ 5.59 µg/mL)
MIC [41]: 3.13 µM (≈ 6.99 µg/mL)

Further lines, results first:

MIC [1]: 7.32 µM (≈ 10 µg/mL)
MIC [2]: 7.32 µM (≈ 10 µg/mL)
Structure (SMILES): CC[C@H](C)[C@H](NC(=O)[C@H](C)NC(=O)[C@H](CC(C)C)NC(=O)[C@@H](N)CC(C)C)C(=O)N[C@H](C(=O)NCC(=O)N[C@@H](CC(N)=O)C(=O)N[C@@H](CC(C)C)C(=O)N[C@@H](CC(C)C)C(=O)N[C@@H](CCCCN)C(=O)N[C@@H](CO)C(=O)N[C@@H](CC(C)C)C(=O)N[C@@H](CC(C)C)C(=O)O)C(C)C [LLAIVGNLLKSLL]

MIC [17]: 0.373 µM (≈ 1 µg/mL)
MIC [18]: 3.73 µM (≈ 10 µg/mL)
MIC [19]: 1.87 µM (≈ 5 µg/mL)
MIC [20]: 3.73 µM (≈ 10 µg/mL)
MIC [21]: 3.73 µM (≈ 10 µg/mL)
MIC [22]: 0.933 µM (≈ 2.5 µg/mL)
Structure (SMILES): CC[C@H](C)[C@H](NC(=O)[C@H](CC(C)C)NC(=O)[C@H](CCCN=C(N)N)NC(=O)[C@H](CCCN=C(N)N)NC(=O)[C@@H](N)CCCCN)C(=O)N[C@@H](Cc1ccccc1)C(=O)N[C@@H](CCCN=C(N)N)C(=O)N[C@H](C(=O)N[C@@H](CC(C)C)C(=O)N[C@@H](CCCCN)C(=O)N[C@@H](CC(C)C)C(=O)N[C@@H](Cc1ccccc1)C(=O)N[C@@H](Cc1ccccc1)C(=O)N[C@@H](CCCN=C(N)N)C(=O)N[C@@H](Cc1ccccc1)C(=O)N[C@@H](CC(C)C)C(=O)N[C@H](C(=O)N[C@@H](CCCCN)C(=O)N[C@@H](CCCCN)C(=O)N[C@@H](CCCN=C(N)N)C(N)=O)C(C)C)[C@@H](C)CC [KRRLIFRILKLFFRFLVKKR]

MIC [23]: 22.4 µM (≈ 32.3 µg/mL)
MIC [24]: 1.73 µM (≈ 2.5 µg/mL)
MIC [25]: ≥ 70.7 µM
MIC [26]: ≥ 35.4 µM
Structure (SMILES): CC[C@H](C)[C@H](NC(=O)[C@H](CCCCN)NC(=O)[C@H](CCCCN)NC(=O)[C@H](Cc1ccccc1)NC(=O)[C@H](CC(C)C)NC(=O)[C@H](CCCCN)NC(=O)[C@@H](N)Cc1c[nH]c2ccccc12)C(=O)N[C@@H](CC(C)C)C(=O)N[C@@H](CCCCN)C(=O)N[C@@H](CCCCN)C(=O)N[C@@H](CC(C)C)C(N)=O [WKLFKKILKKL]

MIC [27]: 3.96 µM (≈ 6.25 µg/mL)
MIC (Candida glabrata 65C): 3.96 µM (≈ 6.25 µg/mL)
MIC [28]: 15.8 µM (≈ 25 µg/mL)
MIC [29]: 3.96 µM (≈ 6.25 µg/mL)
MIC [30]: 1.98 µM (≈ 3.13 µg/mL)
MIC [31]: 3.96 µM (≈ 6.25 µg/mL)
MIC [32]: ≥ 54.1 µM
MIC [33]: ≥ 37.2 µM
MIC [34]: 30.4 µM (≈ 48 µg/mL)
MIC [35]: ≥ 74.4 µM
Structure (SMILES): CC(C)C[C@H](NC(=O)[C@H](CS)NC(=O)[C@H](CCCCN)NC(=O)[C@H](Cc1ccc(O)cc1)NC(=O)[C@H](CO)NC(=O)[C@H](CCCCN)NC(=O)[C@@H](N)CCCN=C(N)N)C(=O)N[C@@H](Cc1cnc[nH]1)C(=O)N[C@@H](CCCCN)C(=O)N[C@@H](CCCN=C(N)N)C(=O)N[C@@H](CS)C(=O)N[C@@H](CCCN=C(N)N)C(=O)O [RKSYKCLHKRCR]

— DBAASP
